Reference: US8877158B2, “Targeting agent to newly formed blood vessels” (FUJIFILM Corporation, priority 2009, dated 2014)
Values belong to the substance of their own block, whether it stands above or below them.

Columns and labels:
HUVECs = test: HUVEC cell adhesiveness test on protein-coated plates (DNA assay, 1-cell area); assay type: cell-based, human
Description: HUVECs (normal human umbilical vein endothelial cells; Takara Bio Inc.) were used as vascular endothelial cells. It is known that many αVβ3 integrin molecules are permanently expressed on the surfaces of HUVECs. By testing cell adhesiveness of R-Gel to HUVECs, binding of R-Gel to vascular endothelial cells activated by newly formed blood vessels can be elucidated. Also, binding of R-Gel to αVβ3 integrin that has been reported to be highly expressed at newly formed blood vessel sites can be elucidated.
For culture of HUVECs, endothelial cell basic medium-2 (containing no serum) (EBM™-2) and endothelial cell medium kit-2 (2% FBS) (EGM™-2 BulletKit™) were used (Takara Bio Inc.). Upon subculture and removal of cells, an EDTA-containing 0.25% trypsin solution was used. HUVECs that had been allowed to proliferate to a sufficient amount in a T-75 flask were removed from the bottom surface of the flask, followed by centrifugation for removal of the supernatant. Then, the resultant was washed with the above endothelial cell basic medium-2 containing the endothelial cell medium kit 2. Centrifugation was performed again to remove the supernatant. […] The number of living cells was counted using cell counter. […]
DNA assay was performed for quantitative determination of the number of cells on the obtained plates. […]

αVβ3 integrin = target: T1, αVβ3 integrin (Homo sapiens, UniProt P05106+P06756); test: Inhibition of αVβ3-integrin-mediated HUVEC adhesion by anti-αV antibody; assay type: cell-based; details: coating 0.2 μg/well; antibody-treated vs untreated HUVECs
T1 construct: many αVβ3 integrin molecules are permanently expressed on the surfaces of HUVECs; host or cells: HUVEC (normal human umbilical vein endothelial cells)
Experimental: In order to identify binding between R-Gel and HUVECs as αVβ3-integrin-mediated binding, experimentation was conducted to determine whether or not R-Gel-to-cell adhesion would be inhibited by blocking αVβ3 integrin with an anti-αV antibody in the R-Gel-to-cell adhesiveness tests conducted in (7) above.
Specifically, cell adhesion experiments were conducted as described in (7) above. Experiments were conducted using the R-Gel-coated plate and the fibronectin-coated plate at a coating concentration of 0.2 μg/well. The prepared HUVECs were incubated with anti-human αV monoclonal antibodies (MAB1980: CHEMICON) at a sufficient concentration at 37° C. for 30 minutes, and they are described as “antibody-treated HUVECs”. On the other hand, the prepared HUVECs were incubated with the addition of the same amount of PBS at 37° C. for 30 minutes, and they are described as ““untreated HUVECs”. Cells were inoculated on plates with addition of a solution (100 μL/well) prepared in a manner such that it contained antibody-treated HUVECs or untreated HUVECs at a concentration of 1,000,000 cells/mL. The time for cell adhesion was determined to be 1 hour at 37° C. as in the case of (7) above. Quantitative determination of the number of cells was carried out by DNA assay as in the case of (7) above.

[1] = in vivo, 24 h; cited from earlier work
neovascular site = test: Inhibition of accumulation of R-Gel in neovascular site by previous administration of cyclo-RGDfK; assay type: in vivo, mouse; details: for fluorescence intensity in the neovascular site: average±S.D.
Experimental: In order to evaluate whether accumulation of R-Gel in neovascular site is targeting caused by the same mechanism as that of circular RGD peptide cyclo-RGDfK, whether accumulation of R-Gel would be inhibited by previously administering a large amount of cyclo-RGDfK was examined. Unlabeled cyclo-RGDfK was dissolved in a concentration of 1 mg/ml in ultrapure water, and thereafter, 100 μL of the obtained solution was administered to a mouse via caudal vein administration. Thirty minutes later, 100 μL of Cy7-R-Gel was administered thereto via caudal vein administration. As a control, instead of cyclo-RGDfK, 100 μL of PBS (phosphate buffer) was administered to a mouse via caudal vein administration, and thirty minutes later, 100 μL of Cy7-R-Gel was administered thereto via caudal vein administration. After completion of the administration, fluorescence intensity in the neovascular site was measured over time. When the fluorescence intensity was measured 1 hour after the administration, the fluorescence intensity in the PBS administration group was 98063583±1200251 (average±S.D.), whereas the fluorescence intensity in the cyclo-RGDfK administration group was 81431011±1373625 (average±S.D.). […] Likewise, in the measurement 3 hours after the administration, the fluorescence intensity in the PBS administration group was 88124139±3438695 (average±S.D.), whereas the fluorescence intensity in the cyclo-RGDfK administration group was 60269975±1267782 (average±S.D.). In the measurement 24 hours after the administration, the fluorescence intensity in the PBS administration group was 22196881±2549892 (average±S.D.), whereas the fluorescence intensity in the cyclo-RGDfK administration group was 12763810±1927458 (average±S.D.).

[2] = test system: tumor site and tumoral neovascular site; test: Imaging of tumor site and tumoral neovascular site of cancer-bearing animal (Colon-26 homograft); assay type: in vivo, BALB/c mouse; details: cyclo-RGDfK administered 30 minutes before Cy7-R-Gel
Experimental: As a tumor-bearing animal model, a cancer-bearing animal was produced. As an animal, BALB/c mouse (female, 6-week-old; Japan SLC, Inc.) was used. Tumor was produced using a cancer cell homograft model. As cancer cells, Colon-26 (which were cells derived from BALB/c mouse colon cancer) was used, and these cells were cultured in large scale in an RPMI1640 medium containing 10% fetal bovine serum. For the culture, a T-225 flask was used. Using EDTA-containing 0.25% trypsin, the growing cancer cells were removed from the bottom of the flask, and a culture supernatant was then removed by centrifugation. Thereafter, the solution was replaced with PBS (phosphate buffer), and the cell concentration was then counted using a cell counter. […]
200 μL of the Cy7-R-Gel or Cy7-animal gelatin produced in (6) above was administered to the cancer-bearing animal produced in (9) above via caudal vein administration, and a fluorescence imaging experiment was then carried out from the outside of the body of the animal.
For detection of a fluorescence signal, measurement, and imaging, Lumino image analyzer LAS5000 (a trial product of Fujifilm Corporation) was used. A visible light image and a fluorescence image were simultaneously taken, and the two images were then overlapped to identify a site from which fluorescence was emitted. […]

T1 sequence (P06756 31-889 limits assumed): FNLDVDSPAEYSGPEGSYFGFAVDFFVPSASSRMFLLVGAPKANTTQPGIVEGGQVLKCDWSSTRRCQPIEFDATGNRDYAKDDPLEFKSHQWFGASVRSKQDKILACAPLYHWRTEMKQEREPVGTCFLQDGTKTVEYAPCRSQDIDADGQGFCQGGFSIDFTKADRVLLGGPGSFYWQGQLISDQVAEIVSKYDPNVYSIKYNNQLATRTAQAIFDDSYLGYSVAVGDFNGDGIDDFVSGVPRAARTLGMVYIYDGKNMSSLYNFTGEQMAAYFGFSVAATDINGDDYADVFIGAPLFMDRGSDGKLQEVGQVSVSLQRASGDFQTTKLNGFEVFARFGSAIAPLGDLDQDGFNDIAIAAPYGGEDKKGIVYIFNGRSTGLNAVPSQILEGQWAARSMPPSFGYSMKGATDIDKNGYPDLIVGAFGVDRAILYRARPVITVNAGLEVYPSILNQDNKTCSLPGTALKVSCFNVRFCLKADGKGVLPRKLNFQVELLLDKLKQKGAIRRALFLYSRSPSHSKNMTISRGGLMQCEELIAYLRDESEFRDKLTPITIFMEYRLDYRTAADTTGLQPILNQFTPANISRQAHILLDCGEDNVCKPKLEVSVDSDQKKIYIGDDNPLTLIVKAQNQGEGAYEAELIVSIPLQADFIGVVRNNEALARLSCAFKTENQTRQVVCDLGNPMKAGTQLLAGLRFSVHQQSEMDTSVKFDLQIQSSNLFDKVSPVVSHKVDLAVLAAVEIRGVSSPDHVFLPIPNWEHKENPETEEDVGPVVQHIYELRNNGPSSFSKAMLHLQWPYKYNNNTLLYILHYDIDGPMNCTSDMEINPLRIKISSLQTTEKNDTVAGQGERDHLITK
T1 sequence (P06756 891-1048 partner limits assumed): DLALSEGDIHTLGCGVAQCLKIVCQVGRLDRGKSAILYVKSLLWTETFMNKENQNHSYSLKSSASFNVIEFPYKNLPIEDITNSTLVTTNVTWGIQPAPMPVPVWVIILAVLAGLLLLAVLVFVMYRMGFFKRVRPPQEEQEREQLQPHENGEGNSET
T1 sequence (P05106 27-788): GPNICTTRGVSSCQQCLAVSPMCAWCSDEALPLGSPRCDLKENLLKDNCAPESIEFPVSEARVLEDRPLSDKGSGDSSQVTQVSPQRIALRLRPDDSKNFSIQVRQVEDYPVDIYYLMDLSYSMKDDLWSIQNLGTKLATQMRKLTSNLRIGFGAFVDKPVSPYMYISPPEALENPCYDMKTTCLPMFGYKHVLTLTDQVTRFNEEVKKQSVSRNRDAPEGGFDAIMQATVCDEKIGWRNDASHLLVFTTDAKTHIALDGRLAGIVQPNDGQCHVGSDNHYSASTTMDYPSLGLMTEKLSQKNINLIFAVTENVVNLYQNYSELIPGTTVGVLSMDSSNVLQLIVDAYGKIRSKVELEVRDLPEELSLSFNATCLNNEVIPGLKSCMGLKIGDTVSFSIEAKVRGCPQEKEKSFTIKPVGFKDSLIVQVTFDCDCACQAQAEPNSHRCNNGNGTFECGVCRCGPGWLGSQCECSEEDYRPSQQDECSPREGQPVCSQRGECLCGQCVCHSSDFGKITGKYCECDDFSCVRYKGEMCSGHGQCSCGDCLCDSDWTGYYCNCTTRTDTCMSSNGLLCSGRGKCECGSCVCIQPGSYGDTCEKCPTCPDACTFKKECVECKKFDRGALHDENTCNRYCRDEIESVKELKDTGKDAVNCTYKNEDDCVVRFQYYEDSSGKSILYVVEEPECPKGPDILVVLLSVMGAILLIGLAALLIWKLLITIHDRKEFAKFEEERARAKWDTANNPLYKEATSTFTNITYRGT

adhesion to HUVECs treated with anti-human αV monoclonal antibody (MAB1980) (αVβ3 integrin): significantly inhibited
Substance: R-Gel: recombinant gelatin CBE3, SEQ ID NO: 1, GAP[(GXY)63]3G, 571 amino acids, 12 RGD sequences
adhesion to HUVECs (number of cells by DNA assay) (HUVECs; coated plates 0.02-2.0 μg/well, 1 hour at 37° C.): superior to fibronectin, Fibrogen, PSK, and G1917P
1-cell area of HUVEC adhering to coated plate (HUVECs; from photos, ImageJ): significantly superior to Fibrogen, PSK, and G1917P

Substance: cyclic-RGDyK
amount of the circular RGD peptide remaining in the body [1]: ≤ 15%

Substance: cyclo-RGDfK
fluorescence intensity in the neovascular site (neovascular site; Cy7-R-Gel 30 min after cyclo-RGDfK (1 mg/ml, 100 μL) pre-administration, 1 hour after the administration): 81431011±1373625
fluorescence intensity in the neovascular site (neovascular site; Cy7-R-Gel 30 min after cyclo-RGDfK pre-administration, 3 hours after the administration): 60269975±1267782
fluorescence intensity in the neovascular site (neovascular site; Cy7-R-Gel 30 min after cyclo-RGDfK pre-administration, 24 hours after the administration): 12763810±1927458
effect of previous administration of cyclo-RGDfK on accumulation of R-Gel in blood vessels (neovascular site; large amount of cyclo-RGDfK administered 30 min before Cy7-R-Gel): inhibits the effect of R-Gel to accumulate in blood vessels
accumulation of R-Gel in the tumoral neovascular site and the tumor site after previous cyclo-RGDfK [2]: decreased

adhesion to HUVECs treated with anti-human αV monoclonal antibody (MAB1980) (αVβ3 integrin): significantly inhibited
Substance: fibronectin
